Reference: patent publication US8338616B2, “Thiazoliums and their use for treating protein aging associated diseases” (Beijing Molecule Science And Technology Co., Ltd., priority 2008, dated 2012)
Where two headings read alike, the source gives them in different places. Marks after values point to notes of the source that are not given here.

Experiments:
[1] = tested on: diabetic rats; conditions: for HR / LVEDP / LVSP / Neg dp/dt / Pos dp/dt: 4 weeks
Method: Rats were anesthetized with pentobarbital sodium injection (0.8%, 50 mg/kg), subjected to tracheal cannula, heparin anticoagulation, right common carotid artery cannula to left ventricle, communicated with Biopac physiological recorder via pressure transducers to record left ventricular pressure tracing, and the software of Biopac (Acknowledge, Version 3) was used for real-time reacording: heart rate, left ventricular systolic pressure peak (LVSP), maximum rate of change of left intraventricular pressure (±dp/dtmax), left ventricular end diastolic pressure (LVEDP). After 10 min of postoperative stabilization, the above parameters were recorded continuously, and mean values for 30 s were used as the measured values of these parameters.

[2] = tested on: diabetic-hypertension rats
Method: The experiment about influence of AGEs breaker on hypotensive effect of nifedipine was performed on a diabetic-hypertension rat model. […] During the experiment, the animals took food freely, and were not interfered with any hypoglycemic drugs or hypotensive drugs.
The compound A was dissolved in distilled water, ready for use. Rats were randomly grouped as diabetic-hypertension control (DM-HTN) group and A (18 mg/kg) group. The drug was introgastrically administered once per day, and an equal amount of distilled water was administered in the diabetic-hypertension control group, for consecutive 4 weeks. After the end of experiment, blood samples were taken, thoracic aorta, liver, kidney were stored at −70° C. for standby use, and used for assays for tissue biochemical indicators and gene expression. Another part of kidney was fixed with 4% paraformaldehyde and used for pathological staining.
Nifedipine powder was formulated with DMSO to form a 5 mg/ml solution, then diluted with 15% ethanol-10% DMSO-25% PEG400 to form a 500 μg/ml solution, and diluted again to form 125 μg/ml, 62.5 μg/ml, 31.25 μg/ml, 15.62 μg/ml, 7.8 μg/ml solutions.
Rats were anesthetized with urethane-chloralose mixture by i.p., subjected to heparin anticoagulation, right common carotid artery cannula, communicated with
Biopac physiological recorder via pressure transducers. Through a right femoral vein remaining needle, nifedipine solutions were injected slowly by 5 batches in an order of concentrations from low to high, and arterial systolic pressure, diastolic pressure, pulse pressure and heart rate change were recorded continuously.

[3] = tested on: NaCl treated diabetic rats modeled with heart failure; experiment: Chronic heart failure, first batch, ultrasonic cardiogram evaluation; type: in vivo, rat; conditions: valsartan 10 mg/kg, compound A 18 mg/kg ig
Method: The pharmacodynamic evaluation was conducted by using a noninvasive ultrasonic cardiogram method.
Evaluation indexes: (1) morphology indexes: left ventricular posterior wall dimensions (LVPWd), left ventricular diastasis internal diameter (LVDd), end systolic diameter (LVDs); (2) functional indexes: ejection fraction (EF), shortening fraction (FS), ventricular early blood flow filling rate (E), atrial filling rate (A) and ratio of E/A; Doppler tissue image; at cardiac apical four chamber view, the valve ring of anterior mitral valve was used as sampling point, peak early diastolic velocity (Ea peak), peak late diastolic velocity (Aa peak), and Ea/Aa ratio reflected the systolic and diastolic motion of the whole left ventricle.
(§1) SPSS statistic software was used to analyze and treat data, and all data were expressed in mean±standard deviation (Mean±SD).

[4] = tested on: NaCl treated diabetic rats modeled with heart failure; conditions: 10 weeks; for BNP: blood plasma
Method: Second batch: NaCl treated diabetic rats modeled with heart failure for 20 weeks and normal control rats synchronically and conventionally drinking water were divided into 5 groups: normal control rats synchronically and conventionally drinking water group (Normal Control), model control group (Model Control), the compound A group (ig, 9 mg/kg), the compound A group (ig, 36 mg/kg), administered with drug once per day for consecutive 10 weeks. The pharmacodynamic evaluation on left ventricular function was conducted by using a ventricular chatheterization method.
as §1

[5] = tested on: AGE-BSA-collagen cross-links; conditions: n = 5
Method: AGE cross-link structures were prepared in vitro by cross-linking AGE-BSA to rat tail collagen coated on a 96 well ELISA plate. A ELISA method was used to evaluate the breaking effect of the compounds on AGE cross-links.
Normal Wister rats (body weight of 200±20 g) were sacrificed acutely, the tails were excised, and tail collagen was prepared at a temperature of 4° C. as follows. Tail tendon collagen fibrils were taken out, washed with physiological saline, peeled off non-collagen fibril tissues, rinsed with double-distilled water 3 times, cut into pieces, and immersed in 0.1% glacial acetic acid at 4° C. for one week during which it was shaken frequently. […] After dilution, the protein content was measured. […]
A solution containing 50 mg/ml of bovine serum albumin BSA (V) (Roch) and 0.5M of glucose in 0.2M PBS (pH 7.4) was incubated in dark at 37° C. under sterile condition for 3-4 months, to thereby form glycosylated BSA, i.e. BSA-AGE. […] Fluorescence scanning (Exi/Em (395/460 nm)) and SDS-PAGE were used to check the formation of BSA-AGE, and protein concentration was determined by the Lowery method.
The tail collagen coated 96 well ELISA plates were full-well treated with PBS (pH 7.4) for 1 hour to neutralize the acidic collagen. […] Within 10 minutes after the reaction, optical density (OD) was read at 450 nm on the BOBRAD Model 550 plate reader with the blank wells of the plates was set to 0. […]

[6] = tested on: tail collagen of diabetic rats; conditions: diabetic model 19.7±7.2
Method: Tail tendon collagen fibrils were taken out under ice-bath, washed with physiological saline, peeled off non-collagen tissues, lyophilized and stored at −70° C. for standby use.
The lyophilized tail collagen was cut into pieces, 2 mg of tail collagen was precisely weighed, added with 10 μg/ml pepsin (solvent: 0.5 mol/L acetic acid) to reach a final concentration of 5 μg pepsin/mg tail collagen, shanken at 4° C. for 2 h, centrifuged at 40000 g for 60 min, after the volume of supernatant was precisely measured, 500 μl of supernatant and total deposition were separately transferred into 5 ml ampules, added with 6 mol/L HCl, sealed, placed in calorstat oven, and hydrolyzed at 110° C. for 24 h.
Measurement of hydroxyproline concentration in the hydrolysis solution: (1) 100 μl of hydrolysis solution was taken from each of ampules, added with about 50 μl 10 mol/L NaOH to pH 6.0, and citric acid buffer solution (50 g citric acid.H2O, 72.36 g anhydrous sodium acetate, 34 g NaOH, 11.52 ml glacial acetic acid were mixed and added with water to 1200 ml, and added with 300 ml n-propanol) 850 μl. […] (4) 10% P-DMAB (1 g p-dimethylaminobenzaldehyde, added with 3.15 mol/L perchloric acid 2.6 ml to dissolve, then diluted with n-propanol to 10 ml, ready to use) 500 μl was added, mixed quickly at 75° C. water-bath for 10 min. […]

[7] = diabetic-hypertension rats, A 18 mg/kg intragastric once per day, 4 weeks

## Cc1csc[n+]1CC(=O)O.[Na+] [A, 3-carboxymethyl-4-methyl-thiazolium bromide sodium]
[1]; 9 mg/kg i.g.
  HR: 361.80 ± 39.74 beat/min
  LVEDP: 5.73 ± 1.44 mmHg
  LVSP: 161.54 ± 13.98 mmHg
  Neg dp/dt: 7762.8 ± 320.2 mmHg/s
  Pos dp/dt: 12201.2 ± 1872.2 mmHg/s
[1]; 18 mg/kg i.g.
  HR: 377.35 ± 17.54 beat/min
  LVEDP: 6.87 ± 1.26 mmHg
  LVSP: 170.65 ± 8.94 mmHg
  Neg dp/dt: 7660.8 ± 1154.8 mmHg/s
  Pos dp/dt: 11712.8 ± 1370.9 mmHg/s
[1]; 36 mg/kg i.g.
  HR: 368.99 ± 31.66 beat/min
  LVEDP: 6.79 ± 2.47 mmHg
  LVSP: 168.25 ± 15.48 mmHg
  Neg dp/dt: 7675.4 ± 2216.6 mmHg/s
  Pos dp/dt: 11425.3 ± 1660.0 mmHg/s
[1]; 4 weeks of administration
  effect on left ventricular functions: significant effect in improving left ventricular functions
[2]; [7]
  DBP: 144.2 ± 11.1 mmHg
  HR: 408.7 ± 35.7 beat/min
  MBP: 153.5 ± 13.7 mmHg
  PP: 22.9 ± 3.8 mmHg
  SBP: 166.6 ± 12.4 mmHg
[2]; diabetic-hypertension rats, compound A for 4 weeks
  change in heart rate and blood pressure: no significant change
[2]; fourth dosage of nifedipine (62.5 μg/ml) i.v., after 4 weeks of A 18 mg/kg, model group 18.92±10.54
  hypotensive extent of nifedipine: 29.99±9.06 mmHg
[2]; from second dosage of nifedipine (15.62 μg/ml), after 4 weeks of A 18 mg/kg
  hypotensive effect of nifedipine vs diabetic-hypertension model group: increased hypotensive effect
[2]; third dosage of nifedipine (31.25 μg/ml) i.v., after 4 weeks of A 18 mg/kg, model group 9.35±6.46
  hypotensive extent of nifedipine: 19.49±13.29 mmHg
[3]; 10th week of administration (30th week of modeling), model control 2.5±0.31
  E/A ratio: 1.32±0.31
[3]; 10th week of administration
  Ea/Aa ratio vs model: increased significantly
  LVDd and LVDs vs model: slight decrease
  PWd vs model: slight increase
[3]; 16th week of administration (36th week of modeling), model control 2.5±0.52
  E/A ratio: 1.45±0.18
[4]; 9 mg/kg ig
  Heart rate: 418.3 ± 27.2 Beats/min
  LVEDP: 11.6 ± 2.9^d mmHg
  LVSP: 187.6 ± 22.3 mmHg
  Neg dp/pt: 10729 ± 2035^d mmHg/s
  Pos dp/pt: 10729 ± 2035^d mmHg/s
  BNP: 50.8 ± 5.7 pg/mL
[4]; 36 mg/kg ig
  Heart rate: 406.1 ± 32.9 Beats/min
  LVEDP: 13.0 ± 6.1^d mmHg
  LVSP: 189.2 ± 13.8 mmHg
  Neg dp/pt: 10033 ± 2044^d mmHg/s
  Pos dp/pt: 10033 ± 2044^d mmHg/s
  BNP: 51.3 ± 8.1 pg/mL
other
  melting point: 182 °C
[5]; 0.01 umol/L
  Breaking rate (decrease % in OD): 8.1 ± 4.76, n =5%
[5]; 0.1 umol/L
  Breaking rate (decrease % in OD): 11.3 ± 7.70, n = 5%
[6]; A 18 mg/kg
  tail collagen dissolubility: 33.7±17.8%
[6]; A 36 mg/kg
  tail collagen dissolubility: 37.5±11.1%
